According to patent publication US7321046B2, “Analogs of dictyostatin, intermediates therefor and methods of synthesis thereof” (University of Pittsburgh, priority 2002, dated 2008):
Read-outs that look alike come from different tables or passages of the source.

Tests used:
[1] = system: 1A9/Ptx10 (Phe270 −> Val) β-tubulin mutant cells; test: Antiproliferative assay (GI50, MTS), paclitaxel-resistant clone; format: cell-based, human; settings: for fold-resistance: 1A9/Ptx10 versus parental 1A9
Description: (§1) Representative analogs were examined for their antiproliferative activities against human ovarian carcinoma 1A9 cells and their paclitaxel-resistant mutants, 1A9/Ptx10 and 1A9/Ptx22.
(§2) The effects of dictyostatin and its analogs on growth inhibition of parental (A549) and paclitaxel-resistant (1A9/Ptx10 and Ptx22) ovarian adenocarcinoma cell lines were evaluated following the antiproliferative assay protocol as described earlier (Minguez et al., 2003; Choy et al., 2003; Lazo et al., 2001). Cells were maintained in RPMI medium with 10% FBS in it, plated in tissue culture plates, and allowed to grow for 48-72 h before transferring them into 96-well plates. Cells were allowed to attach and grow for 48 h in 96-well plates after which they were treated with either control (DMSO) or drug in triplicate/quadruplicate. Cells were incubated with the compounds for 72 h. Cells were treated with MTS reagent before reading the plate in a Dynamax plate reader for determining the cell number. The fifty percent growth inhibition values (GI50 values) were calculated for the compounds against all the three cell lines.

[2] = system: 1A9/Ptx22 (Ala364 −> Thr) β-tubulin mutant cells; test: as above; format: cell-based, human; settings: for fold-resistance: 1A9/Ptx22 versus parental 1A9
Description: as §1, §2

[3] = system: human ovarian carcinoma cells (1A9); test: Antiproliferative assay (GI50, MTS); format: cell-based; settings: for antiproliferative potency / GI50 values (in words): Table 1 (1A9 and mutant lines)
Description: as §1
as §2, with “The effects of dictyostatin and its analogs on growth inhibition of parental (A549) and paclitaxel-resistant (1A9/Ptx10 and Ptx22) ovarian adenocarcinoma cell lines were evaluated following the antiproliferative assay protocol as described earlier (Minguez et al., 2003; Choy et al., 2003; Lazo et al., 2001).” left out

[4] = system: microtubules (tubulin polymer); test: Radiolabeled ligand binding assays; settings: test agent 4 μM; radiolabel 4.0 μM; 37° C.
Description: The abilities of test agents to inhibit the binding of radiolabeled forms of the microtubule stabilizers paclitaxel, discodermolide and epothilone B from tubulin polymer were determined.
[^3H]Paclitaxel, [^3H]discodermolide and [^14C]epothilone B solutions were prepared as 125 μM stock solutions in 50% DMSO. Radiolabeled compound (final concentration, 4.0 μM) and test agents at final concentrations noted in the text and tables were mixed in 50 μL of 4:1 (v/v) 0.75 M aqueous MSG/DMSO and warmed to 37° C. Meanwhile, a reaction mixture containing 0.75 M MSG, 2.5 μM tubulin, and 25 μM ddGTP was prepared and incubated at 37° C. for 30 min to form microtubuless. A 200 μL aliquot of the microtubule mixture was added to the drug mixtures, and incubation continued for 30 min at 37° C. Reaction mixtures were centrifuged in an Eppendorf 5417C centrifuge at 14,000 rpm for 20 min at room temperature. Radiolabel in the supernatants (100 μL) was determined by scintillation spectrometry.

Bovine brain tubulin = system: T1, Bovine brain tubulin; test: Pelleting assay (tubulin assembly EC50 determination); format: biochemical; settings: tubulin 10 μM in 0.2 M MSG, 15 min at 20° C.; for EC50: concentration required to polymerize 50% of tubulin, read-out: EC50 (μM) ± SD (N)
T1 construct: Bovine brain tubulin (10 μM) in 0.2 M MSG, 15 min at 20° C
Description: Dictyostatin and representative analogs were evaluated in a quantitative assay for their ability to promote tubulin polymerization. […] When the percent polymer formed was determined in the reactions, a comparison of the activities of all the analogs could be made.
The assay was performed under three different reaction conditions following the procedure reported earlier (Gapud et al., 2004). Reaction condition 1 included 0.2 M monosodium glutamate (MSG), 10 μM tubulin, 5% DMSO and varying concentrations of test agents. Reaction condition 2 included 0.8 M MSG, 400 μM GTP, 10 μM tubulin, 5% DMSO, and varying concentrations of test agents. Reaction condition 3 had 0.6 M MSG, 200 μM GTP, and 10 μM tubulin, and 5% DMSO, and varying concentrations of the test agents. The experimental protocol for all the three reaction conditions was the following. The reaction mixtures were incubated at room temperature (20-22° C.) for 15 min and spun for 10 min at 14,000 rpm in an Eppendorf microtube centrifuge. Aliquots of the supernatants were removed and assayed for protein content by the method of Lowry.

HeLa cells = test: Multiparameter fluorescence high information content analysis of cellular effects; format: cell-based; parameters: unit not given here; settings: 24 h treatment; for Minimum detectable cellular change, Nuclear condensation: Hoechst 33342
Description: HeLa cells were plated on collagen-coated 384-well microtiter plates, allowed to attach, then treated for 24 h with test agents. Test agent concentrations began at 1 μM, and two-fold dilutions were made to levels below 1 nM. After the treatment period, the cells were fixed with formalin and their chromatin stained with Hoechst 33342. Cells were permeabilized and treated with primary antibodies for α-tubulin and phosphohistone H3, and then with fluorophore-labeled secondary antibodies. The three fluorescent channels were then examined on an ArrayScan II, which gives quantitative pixel distribution and density information in each channel on a per cell basis.
HeLa cells growing at log phase were trypsinized and plated in 40 μL at a density of 7,000-8,000 cells per well in calf skin collagen I-coated 384-well plates (Falcon #3962; Fisher Scientific). Cells were exposed to test agents or 0.5% DMSO within 2-8 h of plating. Concentrated DMSO stock solutions of all test agents were diluted into solutions of HBSS medium plus 10% FBS and added to the microplate wells (10 μL per well), using an automated liquid handling system (Biomek® 2000; Beckman-Coulter, Inc.) to provide a serial 2-fold dilution of each test agent. The cells were incubated in the presence of test agents for 24 h. At the end of the incubation, the medium was removed and replaced with HBSS containing 4% formaldehyde and 10 μg/mL Hoechst 33342 (25 μL/well) to fix the cells and fluorescently label their chromatin. After incubation at room temperature for 20-30 min, the solution was removed from each well and replaced with HBSS (100 μL/well). Further reagent additions were made to the microplates using the Biomek 2000. After removing the HBSS from each well, cells were permeabilized for 5 min at room temperature with 0.5% (w/w) Triton X-100 in HBSS (10 μL/well). This step extracts a fraction of the soluble cellular components, including soluble tubulin. The wells were washed with HBSS (100 μL/well), followed by addition of a primary antibody solution containing mouse anti-α-tubulin (1:3000) and rabbit anti-phosphohistone H3 (1:500) in HBSS (10 μL/well). After 1 h at room temperature, the wells were washed with HBSS as above, followed by the addition of a secondary antibody solution containing fluorescein-5-isothiocyanate (FITC)-labeled donkey anti-mouse (1:300) and Cy3-labeled donkey anti-rabbit (1:300) antibodies diluted in HBSS (10 μL/well). After 1 h at room temperature, the wells were washed as above, and HBSS was added (100 μL/well). The plates were placed in an ArrayScan® HCS Reader with the Target Activation BioApplication Software coupled to Cellomics® Store and the vHCS™ Discovery Toolbox (Cellomics, Inc.) to analyze images. Briefly, the instrument was used to scan multiple optical fields, each with multiparameter fluorescence, within a subset of the wells of the 384-well microplate. The BioApplication software produced multiple numerical feature values, such as subcellular object intensities, shapes, and location for each cell within an optical field. […] A nuclear mask was generated from Hoechst 33342-stained nuclei, and object identification thresholds and shape parameters were set such that the algorithm identified over 90% of the nuclei in each field. Objects that touched each other or the edge of the image were excluded from the analysis. Tubulin mass was defined as the average green (FITC) pixel intensity in an area defined by the Hoechst-defined nuclear mask. This cytoplasmic area around the nucleus contains cytoskeletal components is a region from which sensitive measurements of cytoplasmic characteristics can be made.

CC(=O)O[C@H]1C(=O)[C@@]2(C)[C@H]([C@H](OC(=O)c3ccccc3)[C@]3(O)C[C@H](OC(=O)[C@H](O)[C@@H](NC(=O)c4ccccc4)c4ccccc4)C(C)=C1C3(C)C)[C@]1(OC(C)=O)CO[C@@H]1C[C@@H]2O [paclitaxel, reference compound]
fold-resistance [1]: 90 fold | fold-resistance ([1]; listed as Paclitaxel): ca. 90 fold | GI50 ([1]; Homo sapiens, 1A9/ptx-10, 72 h, 1A9/Ptx10 (Phe270 −> Val), 72 h incubation, read-out: GI50 ± S.D.): 0.064 ± 0.008 µM | fold-resistance [2]: 72 fold | fold-resistance ([2]; listed as Paclitaxel): ~70 fold | GI50 ([2]; Homo sapiens, 1A9/ptx-22, 72 h, 1A9/Ptx22 (Ala364 −> Thr), 72 h incubation, read-out: GI50 ± S.D.): 0.051 ± 0.009 µM | GI50 ([3]; Homo sapiens, Ovarian carcinoma cell, 72 h, 1A9 parental cells, 72 h incubation, read-out: GI50 ± S.D.): 0.00071 ± 0.00011 µM | antiproliferative potency / GI50 values (in words) [3]: subnanomolar potency | Percent inhibition of radiolabel from microtubules, [3H]Discodermolide [4]: 6 ± 5 (3) % | Percent inhibition of radiolabel from microtubules, [14C]Epothilone B [4]: 26 ± 1 (3) % | % Tubulin polymerized by 50 μM test agent (Bovine brain tubulin): 89 ± 6% | EC50 (Bovine brain tubulin): 25 ± 3 µM | Minimum detectable cellular change, Phosphohistone H3 (HeLa cells): 17.5 ± 6.8 (4) | Minimum detectable cellular change, Tubulin polymer intensity (HeLa cells): 8.0 ± 2.9 (4) | Minimum detectable cellular change, Nuclear condensation (HeLa cells): 40.2 ± 13.9 (4)

C=CC=CC(C)C1OC(=O)C=CC=CC(C)C(O)CC(O)C=CC(C)C(O)C(C)CC(C)CCC(O)C1C [Compound 109, 8(S),10(S),14(R),20(S)-Tetrahydroxy-7(S),13(S),15(R),17(S),21(S)-pentamethyl-22(S)-(1(S)-methyl-penta-2,4-dienyl)oxacyclodocosa-3(E),5(E),11(Z)-trien-2-one]
fold-resistance [1]: 1 fold | GI50 ([1]; read-out: GI50 ± S.D., 1A9/Ptx10 (Phe270 −> Val), 72 h incubation): 25 ± 1 µM | fold-resistance [2]: 1.2 fold | GI50 ([2]; read-out: GI50 ± S.D., 1A9/Ptx22 (Ala364 −> Thr), 72 h incubation): 30 ± 1 µM | antiproliferative potency / GI50 values (in words) [3]: mid micromolar GI50 values | GI50 ([3]; read-out: GI50 ± S.D., 1A9 parental cells, 72 h incubation): 25 ± 2 µM | Percent inhibition of radiolabel from microtubules, [3H]Paclitaxel [4]: 0 ± 1% | % Tubulin polymerized by 50 μM test agent (Bovine brain tubulin): 5 ± 4% | EC50 (Bovine brain tubulin): > 50 µM | Minimum detectable cellular change, Phosphohistone H3 (HeLa cells): >5000 (4) | Minimum detectable cellular change, Tubulin polymer intensity (HeLa cells): >5000 (4) | Minimum detectable cellular change, Nuclear condensation (HeLa cells): >5000 (4)

C/C(=C\c1csc(C)n1)[C@@H]1C[C@@H]2O[C@@H]2CCC[C@H](C)[C@H](O)[C@@H](C)C(=O)C(C)(C)[C@@H](O)CC(=O)O1 [epothilone A]
Percent inhibition of radiolabel from microtubules, [3H]Discodermolide [4]: 6 ± 6 (3) % | Percent inhibition of radiolabel from microtubules, [3H]Paclitaxel [4]: 53 ± 4 (4) % | Percent inhibition of radiolabel from microtubules, [14C]Epothilone B [4]: 25 ± 3 (3) %

C/C(=C\c1csc(C)n1)[C@@H]1C[C@@H]2O[C@]2(C)CCC[C@H](C)[C@H](O)[C@@H](C)C(=O)C(C)(C)[C@@H](O)CC(=O)O1 [epothilone B]
Percent inhibition of radiolabel from microtubules, [3H]Discodermolide [4]: 14 ± 3%

CC(=O)O[C@@]12CO[C@@H]1C[C@H](O)[C@@]1(C)C(=O)[C@H](O)C3=C(C)[C@@H](OC(=O)[C@H](O)[C@@H](NC(=O)OC(C)(C)C)c4ccccc4)C[C@@](O)([C@@H](OC(=O)c4ccccc4)[C@H]21)C3(C)C [docetaxel]
Percent inhibition of radiolabel from microtubules, [3H]Discodermolide [4]: 8 ± 6 (3) % | Percent inhibition of radiolabel from microtubules, [3H]Paclitaxel [4]: 63 ± 8 (4) % | Percent inhibition of radiolabel from microtubules, [14C]Epothilone B [4]: 36 ± 1 (3) %

C=C/C=C\[C@H](C)[C@H](O)[C@@H](C)[C@H](CC[C@H](C)C[C@@H](C)[C@@H](O[Si](C)(C)C(C)(C)C)[C@@H](C)/C=C\[C@H](C[C@H](O[Si](C)(C)C(C)(C)C)[C@@H](C)/C=C/C=C\C(=O)O)O[Si](C)(C)C(C)(C)C)O[Si](C)(C)C(C)(C)C [Compound 107, (2Z,4E,6S,7S,9S,10Z,12S,13R,14R,16S,19S,20R,21S,22S,23Z)-7,9,13,19-tetrakis(tert-Butyldimethylsilyloxy)-21-hydroxy-6,12,14,16,20,22-hexamethylhexacosa-2,4,10,23,25-pentaenoic acid]
GI50 ([1]; Homo sapiens, 1A9/ptx-10, 72 h, read-out: GI50 ± S.D., 1A9/Ptx10 (Phe270 −> Val), 72 h incubation): > 0.5 µM | GI50 ([2]; Homo sapiens, 1A9/ptx-22, 72 h, read-out: GI50 ± S.D., 1A9/Ptx22 (Ala364 −> Thr), 72 h incubation): > 0.5 µM | GI50 ([3]; Homo sapiens, Ovarian carcinoma cell, 72 h, read-out: GI50 ± S.D., 1A9 parental cells, 72 h incubation): > 0.5 µM
